Data published in PubChem BioAssay (NCI).
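Assay format: 96-well plates, 48-hour exposure. GI50 = concentration required for 50% inhibition of growth. TGI: concentration producing complete growth inhibition.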

Tests used:
Experiment in all cases: growth of human tumour cells (NCI), 48 h
A498 renal = system: A498 renal
T-47D breast = system: T-47D breast
EKVX NSCLC = system: EKVX NSCLC
K-562 leukemia = system: K-562 leukemia
LOX IMVI melanoma = system: LOX IMVI melanoma
MDA-MB-435 = system: MDA-MB-435
HOP-62 NSCLC = system: HOP-62 NSCLC
HCC-2998 colon = system: HCC-2998 colon
OVCAR-3 ovarian = system: OVCAR-3 ovarian
SK-MEL-28 melanoma = system: SK-MEL-28 melanoma
SNB-19 CNS = system: SNB-19 CNS
PC-3 prostate = system: PC-3 prostate
786-0 renal = system: 786-0 renal
RPMI-8226 leukemia = system: RPMI-8226 leukemia
HOP-92 NSCLC = system: HOP-92 NSCLC
U251 CNS = system: U251 CNS
SN12C renal = system: SN12C renal
SNB-75 CNS = system: SNB-75 CNS
SR leukemia = system: SR leukemia
A549 NSCLC = system: A549 NSCLC
BT-549 breast = system: BT-549 breast
OVCAR-5 ovarian = system: OVCAR-5 ovarian
CCRF-CEM leukemia = system: CCRF-CEM leukemia
SF-295 CNS = system: SF-295 CNS
MALME-3M melanoma = system: MALME-3M melanoma
HCT-15 colon = system: HCT-15 colon
UACC-257 melanoma = system: UACC-257 melanoma
M14 melanoma = system: M14 melanoma
CAKI-1 renal = system: CAKI-1 renal

Structure (SMILES): CS(=O)c1nccc(-c2c(-c3ccc(F)c(OCCc4ccc(F)cc4)c3)nc3sccn23)n1 (configuration not stated)
- GI50 (A498 renal): > 100 µM
- TGI (A498 renal): > 100 µM
- GI50 (T-47D breast): 2.49 µM
- TGI (T-47D breast): 6.12 µM
- GI50 (EKVX NSCLC): 17 µM
- TGI (EKVX NSCLC): 42.3 µM
- GI50 (K-562 leukemia): 3.04 µM
- TGI (K-562 leukemia): 11.7 µM
- GI50 (LOX IMVI melanoma): 10.5 µM
- TGI (LOX IMVI melanoma): 23.4 µM
- GI50 (MDA-MB-435): 16.7 µM
- TGI (MDA-MB-435): 32.2 µM
- GI50 (HOP-62 NSCLC): 16.2 µM
- TGI (HOP-62 NSCLC): 32.2 µM
- GI50 (HCC-2998 colon): 11.7 µM
- TGI (HCC-2998 colon): 24.9 µM
- GI50 (OVCAR-3 ovarian): 3.45 µM
- TGI (OVCAR-3 ovarian): 12.9 µM
- GI50 (SK-MEL-28 melanoma): 9.81 µM
- TGI (SK-MEL-28 melanoma): 21.5 µM
- GI50 (SNB-19 CNS): 14.6 µM
- TGI (SNB-19 CNS): 29.3 µM
- GI50 (PC-3 prostate): 11.9 µM
- TGI (PC-3 prostate): 27.4 µM
- GI50 (786-0 renal): 34.8 µM
- TGI (786-0 renal): > 100 µM
- GI50 (RPMI-8226 leukemia): 4.84 µM
- TGI (RPMI-8226 leukemia): 28.4 µM
- GI50 (HOP-92 NSCLC): 6.72 µM
- TGI (HOP-92 NSCLC): 26.7 µM
- GI50 (U251 CNS): 28.8 µM
- TGI (U251 CNS): > 100 µM
- GI50 (SN12C renal): 15.2 µM
- TGI (SN12C renal): 33.7 µM
- GI50 (SNB-75 CNS): 21.2 µM
- TGI (SNB-75 CNS): > 100 µM
- GI50 (SR leukemia): 4.22 µM
- TGI (SR leukemia): 28.8 µM
- GI50 (A549 NSCLC): > 100 µM
- TGI (A549 NSCLC): > 100 µM
- GI50 (BT-549 breast): 18.4 µM
- TGI (BT-549 breast): 37.5 µM
- GI50 (OVCAR-5 ovarian): 39.9 µM
- TGI (OVCAR-5 ovarian): > 100 µM
- GI50 (CCRF-CEM leukemia): 5.16 µM
- TGI (CCRF-CEM leukemia): 24 µM
- GI50 (SF-295 CNS): > 100 µM
- TGI (SF-295 CNS): > 100 µM
- GI50 (MALME-3M melanoma): 15.3 µM
- TGI (MALME-3M melanoma): 33.3 µM
- GI50 (HCT-15 colon): 3.95 µM
- TGI (HCT-15 colon): 16.9 µM
- GI50 (UACC-257 melanoma): 14.6 µM
- TGI (UACC-257 melanoma): 29.5 µM
- GI50 (M14 melanoma): 15.2 µM
- TGI (M14 melanoma): 30.4 µM
- GI50 (CAKI-1 renal): 11.1 µM
